These results are taken from PubChem BioAssay AID1259407 (Chemical Carcinogenesis Research Information System (CCRIS), 2018).

Calls of active or inactive are those of the source. How the calls were made is not given here.

For the series, the system named is CCRIS mutagenicity, Ames/micronucleus/aberration tests. In words: CCRIS mutagenicity studies.

For the compound `Oc1ccc(O)c2ccccc12`, the mutagenic call reads like this: (Test System: AMES SALMONELLA TYPHIMURIUM, Strain/Indicator: TA104, Metabolic Activation: NONE, Method: PREINCUBATION) “active; positive”; (Test System: AMES SALMONELLA TYPHIMURIUM, Strain/Indicator: TA2637, Metabolic Activation: RAT, LIVER, S-9, PHENOBARBITAL AND 5,6-BENZOFLAVONE, Method: PREINCUBATION) “active; positive”.

As to `NS(=O)(=O)c1cc2c(cc1Cl)NCNS2(=O)=O`, the mutagenic call is, setting by setting: (End Point: IN VITRO CHROMOSOMAL ABERRATIONS, Test System: CHINESE HAMSTER OVARY CELLS, Metabolic Activation: NONE) “inactive; negative”; (End Point: IN VITRO CHROMOSOMAL ABERRATIONS, Test System: CHINESE HAMSTER OVARY CELLS, Metabolic Activation: RAT, LIVER, S-9, AROCLOR 1254) “inactive; negative”; (End Point: IN VITRO CHROMOSOMAL ABERRATIONS, Test System: CHO CELLS, Metabolic Activation: NONE) “inactive; negative”; (End Point: IN VITRO CHROMOSOMAL ABERRATIONS, Test System: CHO CELLS, Metabolic Activation: RAT, LIVER, S-9, AROCLOR 1254) “inactive; negative”; (Test System: AMES SALMONELLA TYPHIMURIUM, Strain/Indicator: TA98, Metabolic Activation: HAMSTER, LIVER, S-9, AROCLOR 1254, Method: PREINCUBATION) “inactive; negative”; (Test System: AMES SALMONELLA TYPHIMURIUM, Strain/Indicator: TA98, Metabolic Activation: RAT, LIVER, S-9, AROCLOR 1254, Method: PREINCUBATION) “inactive; negative”. The mutagenic call by setting is: (Test System: AMES SALMONELLA TYPHIMURIUM, Strain/Indicator: TA100, Metabolic Activation: HAMSTER, LIVER, S-9, AROCLOR 1254, Method: PREINCUBATION) “inactive; negative”; (Test System: AMES SALMONELLA TYPHIMURIUM, Strain/Indicator: TA100, Metabolic Activation: NONE, Method: PREINCUBATION) “inactive; negative”; (Test System: AMES SALMONELLA TYPHIMURIUM, Strain/Indicator: TA100, Metabolic Activation: RAT, LIVER, S-9, AROCLOR 1254, Method: PREINCUBATION) “inactive; negative”; (Test System: AMES SALMONELLA TYPHIMURIUM, Strain/Indicator: TA1535, Metabolic Activation: HAMSTER, LIVER, S-9, AROCLOR 1254, Method: PREINCUBATION) “inactive; negative”; (Test System: AMES SALMONELLA TYPHIMURIUM, Strain/Indicator: TA1535, Metabolic Activation: NONE, Method: PREINCUBATION) “inactive; negative”; (Test System: AMES SALMONELLA TYPHIMURIUM, Strain/Indicator: TA1535, Metabolic Activation: RAT, LIVER, S-9, AROCLOR 1254, Method: PREINCUBATION) “inactive; negative”. Moreover, the mutagenic call by setting is: (Test System: AMES SALMONELLA TYPHIMURIUM, Strain/Indicator: TA1537, Metabolic Activation: HAMSTER, LIVER, S-9, AROCLOR 1254, Method: PREINCUBATION) “inactive; negative”; (Test System: AMES SALMONELLA TYPHIMURIUM, Strain/Indicator: TA1537, Metabolic Activation: RAT, LIVER, S-9, AROCLOR 1254, Method: PREINCUBATION) “inactive; negative”; (Test System: MOUSE LYMPHOMA, Strain/Indicator: L5178Y (TK+/TK-), Metabolic Activation: NONE, Method: SUSPENSION/PLATE) “active; positive”.
